Source: patent publication US20240408067A1, “SOLID STATE FORMS OF NIROGACESTAT SALTS” (TEVA PHARMACEUTICALS INTERNATIONAL GMBH, priority 2021, published 2024)
Structures can show the parent of a compound that is named as a salt.

How the values were obtained:
Format in all cases: physicochemical
[1] = Storage stability at different relative humidities, ambient temperature, 7 days (XRPD)
Method: (§1) X-ray diffraction was performed on X-Ray powder diffractometer: Bruker D8 Advance; CuKα radiation (λ=1.5418 Å); Lynx eye detector; laboratory temperature 22-25° C.; PMMA specimen holder ring with silicon low background. Prior to analysis, the samples were gently ground by means of mortar and pestle in order to obtain a fine powder. The ground sample was adjusted into a cavity of the sample holder and the surface of the sample was smoothed by means of a cover glass. • Scan range: 2-40 degrees 2-theta; • Scan mode: continuous; • Step size: 0.05 degrees; • Time per step: 0.5 s; • Sample spin: 30 rpm; • Sample holder: PMMA specimen holder ring with silicon low background. Samples of Nirogacestat dihydrobromide Form NT1 and Nirogacestat hydrobromide Form NHBr1 were subjected to conditions of different relative humidity at ambient temperature. XRPD analysis was performed on the samples after 7 days.

[2] = Storage stability at different relative humidity and temperatures, 6 months (XRPD); conditions: for XRPD analysis results, 25° C., 60% RH / XRPD analysis results, 40° C., 75% RH: 6 months
Method: as §1, with “NT1” for “NT1 and Nirogacestat hydrobromide Form NHBr1”, “different temperatures.” for “ambient temperature.”, “6 months.” for “7 days.”

[3] = Grinding experiments (strong grinding, solvent drop grinding; XRPD); conditions: for XRPD analysis results, strong grinding: about 20 mg ground with a pestle for 2 minutes, sample alone; for Stability to solvent drop grinding: isopropanol or no solvent
Method: X-ray diffraction was performed on X-Ray powder diffractometer: Bruker D8 Advance; CuKα radiation (λ=1.5418 Å); Lynx eye detector; laboratory temperature 22-25° C.; PMMA specimen holder ring with silicon low background. Prior to analysis, the samples were gently ground by means of mortar and pestle in order to obtain a fine powder. The ground sample was adjusted into a cavity of the sample holder and the surface of the sample was smoothed by means of a cover glass. • Scan range: 2-40 degrees 2-theta; • Scan mode: continuous; • Step size: 0.05 degrees; • Time per step: 0.5 s; • Sample spin: 30 rpm; • Sample holder: PMMA specimen holder ring with silicon low background. […] […] In these experiments, about 20 mg of the sample is placed in a mortar and ground with a pestle for 2 minutes. The solvent, when used, was added to the crystalline material before grinding, in a volume of 10 microlitres. XRPD analysis performed on the sample after the grinding experiment, confirmed no change in the starting material (Table 3):

[4] = Thermal stability, heating up to 100° C. (XRPD); conditions: heating up to 100° C. for 30 minutes
Method: as §1, with “to heating up to 100° C. for 30 minutes.” for “to conditions of different relative humidity at ambient temperature.”, “analysis of” for “analysis was performed on”, “the sample confirmed there to be no change in the starting material (Table 4): […]” for “the samples after 7 days.”

[5] = Stability under pressure of 2 tons
[6] = listed as Form NT1, dihydrobromide salt
[7] = listed as Nirogacestat dihydrobromide Form NT1, dihydrobromide salt
[8] = listed as Form NT1 of Nirogacestat dihydrobromide, dihydrobromide salt
[9] = listed as Nirogacestat dihydrobromide form NT1, dihydrobromide salt
[10] = listed as Form NHBr1 of Nirogacestat hydrobromide, hydrobromide salt
[11] = listed as Nirogacestat hydrobromide Form NHBr1, hydrobromide salt

## CCC[C@H](N[C@H]1CCc2cc(F)cc(F)c2C1)C(=O)Nc1cn(C(C)(C)CNCC(C)(C)C)cn1 [Nirogacestat dihydrobromide salt]
[1]; 20% RH, ambient temperature, 7 days, listed as Form NT1, dihydrobromide salt
  XRPD analysis results, relative humidity 20%: stable
[1]; 40% RH, ambient temperature, 7 days, listed as Form NT1, dihydrobromide salt
  XRPD analysis results, relative humidity 40%: stable
[1]; 60% RH, ambient temperature, 7 days, listed as Form NT1, dihydrobromide salt
  XRPD analysis results, relative humidity 60%: stable
[1]; 80% RH, ambient temperature, 7 days, listed as Form NT1, dihydrobromide salt
  XRPD analysis results, relative humidity 80%: stable
[1]; at least 7 days, summary of Table 1
  Stability after exposure to high and low relative humidity: stable
[2]; [6]
  XRPD analysis results, 25° C., 60% RH: stable
  XRPD analysis results, 40° C., 75% RH: stable
[2]; [7]
  XRPD analysis results, 25° C., 60% RH: No change
  XRPD analysis results, 40° C., 75% RH: No change
[2]; at least 6 months, summary of Table 2
  Stability after exposure to high and low relative humidity at different temperatures: stable
[3]; dihydrobromide salt
  XRPD analysis results, strong grinding: No change
[3]; [8]
  XRPD analysis results, strong grinding: stable
[3]; [7]
  XRPD analysis results, strong grinding: no change
  Stability to solvent drop grinding: no change
[3]; [9]
  XRPD analysis results, strong grinding: stable
  Stability to solvent drop grinding: stable
[3]; ground 2 minutes, 10 microlitres solvent, ethanol
  XRPD analysis results, solvent-drop grinding (ethanol): No change
[3]; ground 2 minutes, 10 microlitres solvent, water
  XRPD analysis results, solvent-drop grinding (water): No change
[3]; summary of Table 3
  Resistance to polymorphic changes on grinding: resistant to polymorphic changes
[4]; dihydrobromide salt
  Result, heating 100° C., 30 minutes: Stable
[4]; [8]
  Result, heating 100° C., 30 minutes: stable
[4]; [7]
  Result, heating 100° C., 30 minutes: no change
[4]; [9]
  Result, heating 100° C., 30 minutes: stable
[5]
  Stability under pressure: stable

## CCC[C@H](N[C@H]1CCc2cc(F)cc(F)c2C1)C(=O)Nc1cn(C(C)(C)CNCC(C)(C)C)cn1 [Nirogacestat hydrobromide salt]
[3]; hydrobromide salt
  XRPD analysis results, strong grinding: No change
[3]; [10]
  XRPD analysis results, strong grinding: stable
[3]; [11]
  XRPD analysis results, strong grinding: no change
  Stability to solvent drop grinding: no change
[4]; hydrobromide salt
  Result, heating 100° C., 30 minutes: Stable
[4]; [10]
  Result, heating 100° C., 30 minutes: stable
[4]; [11]
  Result, heating 100° C., 30 minutes: no change
